The text below walks through data of ChEMBL document CHEMBL1139911, “4-substituted indazoles as new inhibitors of neuronal nitric oxide synthase” (Bioorg Med Chem Lett, 2007).

The target of one assay is Nitric oxide synthase 1 (Rattus norvegicus, UniProt P29476). The assay can be described thus: Inhibition of rat neuronal NOS.
Assay [1] relates to Mus musculus. The assay can be described thus: Antinociceptive effect in acetic acid-induced mouse assessed as number of writhes for 10 mins at 50 mg/kg, ip. The class given is functional. The following applies: route intraperitoneal.
In assay [2] the test system is Mus musculus. The assay can be described thus: Antinociceptive effect in acetic acid-induced mouse assessed as number of writhes for 10 mins at 12.5 mg/kg, ip. Type of assay: functional. Particulars: route intraperitoneal.
Assay [3] has as its system Mus musculus. Briefly: Antinociceptive effect in acetic acid-induced mouse assessed as number of writhes for 10 mins at 25 mg/kg, ip. Type of assay: functional. Particulars: route intraperitoneal.
The subject of assay [4] is Mus musculus. The assay can be described thus: Antinociceptive effect in mouse assessed as number of writhes for 10 mins at 50 mg/kg, ip. Type of assay: functional. The following applies: route intraperitoneal.
Assay [5] concerns Mus musculus. Briefly: Reversal of antinociceptive effect in L-arginine pretreated mouse assessed as number or writhes for 10 mins at 50 mg/kg, ip. Particulars: route intraperitoneal. The class given is functional.

As usually defined, the IC50 is the concentration needed to halve the response being measured. Read a high IC50 as a need for much substance.

A value given as a limit tells only on which side of the number the result lay.

Sequence of Nitric oxide synthase 1 (P29476 whole entry): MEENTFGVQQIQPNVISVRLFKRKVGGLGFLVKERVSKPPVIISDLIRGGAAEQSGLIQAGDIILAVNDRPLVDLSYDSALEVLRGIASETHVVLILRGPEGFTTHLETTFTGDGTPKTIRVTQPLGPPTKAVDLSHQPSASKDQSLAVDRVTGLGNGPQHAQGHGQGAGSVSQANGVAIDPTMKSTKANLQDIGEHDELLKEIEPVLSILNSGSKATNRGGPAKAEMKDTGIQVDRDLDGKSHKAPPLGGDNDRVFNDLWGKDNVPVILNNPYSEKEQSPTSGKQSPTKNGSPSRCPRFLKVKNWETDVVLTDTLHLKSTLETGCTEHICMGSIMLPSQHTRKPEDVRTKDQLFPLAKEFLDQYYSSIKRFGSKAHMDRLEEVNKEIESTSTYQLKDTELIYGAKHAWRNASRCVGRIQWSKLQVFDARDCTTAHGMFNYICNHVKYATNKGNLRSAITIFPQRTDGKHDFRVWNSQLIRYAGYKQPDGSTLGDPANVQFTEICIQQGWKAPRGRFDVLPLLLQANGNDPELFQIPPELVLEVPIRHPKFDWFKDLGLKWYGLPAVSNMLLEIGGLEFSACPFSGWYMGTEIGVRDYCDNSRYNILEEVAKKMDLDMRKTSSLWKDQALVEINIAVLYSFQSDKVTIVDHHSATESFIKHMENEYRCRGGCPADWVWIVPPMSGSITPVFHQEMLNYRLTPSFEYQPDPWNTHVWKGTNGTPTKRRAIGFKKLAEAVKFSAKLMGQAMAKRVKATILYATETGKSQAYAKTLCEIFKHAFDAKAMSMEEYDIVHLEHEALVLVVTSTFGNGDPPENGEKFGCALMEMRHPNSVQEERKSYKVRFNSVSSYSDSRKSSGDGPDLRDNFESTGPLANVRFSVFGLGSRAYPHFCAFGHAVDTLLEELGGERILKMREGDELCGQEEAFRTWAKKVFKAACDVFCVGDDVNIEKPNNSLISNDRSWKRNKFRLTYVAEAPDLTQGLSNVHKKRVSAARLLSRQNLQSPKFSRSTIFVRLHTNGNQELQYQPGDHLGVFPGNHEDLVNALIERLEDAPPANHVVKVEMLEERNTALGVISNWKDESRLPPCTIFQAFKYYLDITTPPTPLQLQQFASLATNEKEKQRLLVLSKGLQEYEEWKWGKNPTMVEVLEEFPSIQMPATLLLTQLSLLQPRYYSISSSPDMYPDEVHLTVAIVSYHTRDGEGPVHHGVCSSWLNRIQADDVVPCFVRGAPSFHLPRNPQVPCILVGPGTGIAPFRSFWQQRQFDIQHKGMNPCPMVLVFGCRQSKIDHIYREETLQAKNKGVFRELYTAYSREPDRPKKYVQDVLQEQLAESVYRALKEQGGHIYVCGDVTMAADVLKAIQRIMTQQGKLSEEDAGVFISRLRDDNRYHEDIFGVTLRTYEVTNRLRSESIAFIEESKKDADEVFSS

In the case of `Fc1cccc2[nH]ncc12`, the 50% inhibitory concentration (IC50) against Nitric oxide synthase 1 is > 100 µM. On the same count and under the same terms, the value for `Brc1ccc2cn[nH]c2c1` was 4.3 µM.

Consider `O=[N+]([O-])c1cccc2cn[nH]c12` [7-NITROINDAZOLE], for which the Activity in the assay on Mus musculus [1] is reported as 6.8. Consider `Clc1cccc2[nH]ncc12`, for which half-maximal inhibition against Nitric oxide synthase 1 (IC50) required 44.3 µM. With `O=[N+]([O-])c1cccc2[nH]ncc12`, the Activity in the assay with Mus musculus [2] is 18; in the assay on Mus musculus [3], 9.9; in the assay on Mus musculus [1], 9.3; in the assay on Mus musculus [4], 11.8; in the assay on Mus musculus [5], 23.8. For `N=C(N)NCCC[C@H](N)C(=O)O` [ARGININE], the Activity in the assay on Mus musculus [4] was determined as 22.9. As to `Fc1ccc2[nH]ncc2c1`, the 50% inhibitory concentration (IC50) against Nitric oxide synthase 1 is > 100 µM.

In the case of `Brc1cccc2cn[nH]c12`, half-maximal inhibition on Nitric oxide synthase 1 (IC50) was put at 14.3 µM. `Brc1ccc2[nH]ncc2c1` came in with an IC50 against Nitric oxide synthase 1 of 72 µM. For the compound `Fc1ccc2cn[nH]c2c1`, at Nitric oxide synthase 1, the IC50 was > 100 µM.

On to `CC(=O)Oc1ccccc1C(=O)O` [ASPIRIN], for which, in the assay with Mus musculus [2], the Activity came out at 7.6. Consider `Clc1ccc2cn[nH]c2c1`, for which the IC50 against Nitric oxide synthase 1 amounted to 22 µM. The same measure, in the same setting: under `Ic1ccc2[nH]ncc2c1` stands 37 µM; under `Clc1ccc2[nH]ncc2c1`, 59.3 µM. The same measure, in the same setting: under `Ic1cccc2[nH]ncc12` stands 17 µM. Consider `Clc1cccc2cn[nH]c12`, for which, at Nitric oxide synthase 1, the half-maximal inhibitory concentration (IC50) came out at 4.2 µM. Further, the Activity is given as 15 in the assay on Mus musculus [2]; 12.9 in the assay on Mus musculus [3]; 7.9 in the assay on Mus musculus [1]; 12.1 with Mus musculus [4]; 23 in the assay with Mus musculus [5]. `Brc1cccc2[nH]ncc12` showed an IC50 on Nitric oxide synthase 1 of 2.4 µM. The Activity in the assay on Mus musculus [2] stood at 11; in the assay with Mus musculus [3], 8.8; in the assay with Mus musculus [1] it was 9.3; with Mus musculus [4], 10.8; in the assay on Mus musculus [5] it was 24.3.
